Biological target: T1, 15-lipoxygenase-1 (15-LO) (Homo sapiens, UniProt P16050)
T1 construct: gene ALOX15; 6xHis-tagged human 15-LO
T1 sequence (P16050 2-662): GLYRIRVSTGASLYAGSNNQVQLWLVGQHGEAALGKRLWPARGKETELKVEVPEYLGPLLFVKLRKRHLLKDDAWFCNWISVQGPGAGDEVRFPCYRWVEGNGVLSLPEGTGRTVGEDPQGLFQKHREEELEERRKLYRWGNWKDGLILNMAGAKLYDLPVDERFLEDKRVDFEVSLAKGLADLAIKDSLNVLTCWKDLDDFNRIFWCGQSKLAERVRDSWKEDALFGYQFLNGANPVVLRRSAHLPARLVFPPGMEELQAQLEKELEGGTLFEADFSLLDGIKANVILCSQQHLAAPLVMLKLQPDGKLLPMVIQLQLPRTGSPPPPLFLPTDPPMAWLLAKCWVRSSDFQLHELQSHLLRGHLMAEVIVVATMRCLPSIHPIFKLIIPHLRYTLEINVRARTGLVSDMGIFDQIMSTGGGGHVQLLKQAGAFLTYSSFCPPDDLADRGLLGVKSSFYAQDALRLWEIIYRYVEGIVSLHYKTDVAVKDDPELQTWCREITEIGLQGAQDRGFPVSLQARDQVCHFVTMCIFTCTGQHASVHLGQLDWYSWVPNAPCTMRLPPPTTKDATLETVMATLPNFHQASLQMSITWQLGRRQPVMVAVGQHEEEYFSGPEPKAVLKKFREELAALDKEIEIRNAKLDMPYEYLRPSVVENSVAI
Experiment: ferrous oxidation-xylenol orange (FOX) assay with purified human 15-LO and arachidonic acid
Format: biochemical

IC50: 4.4 µM
SMILES: CC(C)=CCC/C(C)=C/CC/C(C)=C/CC[C@@](C)(O)CCc1c(C)c(O)c(C)c(C)c1O [EPI-743-HQ, EPI-743 hydroquinone]
